Reference: patent US8642594B2, “Substituted thieno[2,3-d]pyrimidines as HSP90 inhibitors” (Vernalis (R&D) Limited, priority 2003, dated 2014)

Target: T1, Human full-length Hsp90 (Homo sapiens, UniProt P08238)
T1 construct: E. coli expressed human full-length HSP90 protein, purified >95%; made in house; host or cells: E. coli
Assay: Fluorescence polarization assay (competitive binding to HSP90, probe RBT0045864-FAM)
Conditions: not given
Protocol: Fluorescence Polarization Assay
Fluorescence polarization {also known as fluorescence anisotropy} measures the rotation of a fluorescing species in solution, where the larger molecule the more polarized the fluorescence emission. When the fluorophore is excited with polarized light, the emitted light is also polarized. The molecular size is proportional to the polarization of the fluorescence emission.
The fluoroscein-labelled probe—RBT0045864-FAM—
Test compound is added to the assay plate, left to equilibrate and the anisotropy measured again. Any change in anisotropy is due to competitive binding of compound to HSP90, thereby releasing probe.
Stored at room temperature. • 3) BSA (bovine serum albumen) 10 mg/ml (New England Biolabs #B9001S) • 4) 20 mM probe in 100% DMSO stock concentration. Stored in the dark at RT. Working concentration is 200 nM diluted in AR water and stored at 4° C. […] Protocol • 1) Add 100 μl 1× buffer to wells 11A and 12A (=FP BLNK) • 2) Prepare assay mix—all reagents are kept on ice with a lid on the bucket as the probe is light-sensitive.
This gives 2.5 mM {50×} stock cpd—assuming cpds 20 mM. • 4) Repeat for wells A2 to A10. Control in columns 11 and 12. • 5) Transfer 5 μl from row A to row B—not column 12. Mix well. • 6) Transfer 5 μl from row B to row C. […] Add 2 μl of 100 mM standard cpd to wells B12-H12 {is positive control} • 13) The Z′ factor is calculated from zero controls and positive wells.

T1 sequence (P08238 whole entry): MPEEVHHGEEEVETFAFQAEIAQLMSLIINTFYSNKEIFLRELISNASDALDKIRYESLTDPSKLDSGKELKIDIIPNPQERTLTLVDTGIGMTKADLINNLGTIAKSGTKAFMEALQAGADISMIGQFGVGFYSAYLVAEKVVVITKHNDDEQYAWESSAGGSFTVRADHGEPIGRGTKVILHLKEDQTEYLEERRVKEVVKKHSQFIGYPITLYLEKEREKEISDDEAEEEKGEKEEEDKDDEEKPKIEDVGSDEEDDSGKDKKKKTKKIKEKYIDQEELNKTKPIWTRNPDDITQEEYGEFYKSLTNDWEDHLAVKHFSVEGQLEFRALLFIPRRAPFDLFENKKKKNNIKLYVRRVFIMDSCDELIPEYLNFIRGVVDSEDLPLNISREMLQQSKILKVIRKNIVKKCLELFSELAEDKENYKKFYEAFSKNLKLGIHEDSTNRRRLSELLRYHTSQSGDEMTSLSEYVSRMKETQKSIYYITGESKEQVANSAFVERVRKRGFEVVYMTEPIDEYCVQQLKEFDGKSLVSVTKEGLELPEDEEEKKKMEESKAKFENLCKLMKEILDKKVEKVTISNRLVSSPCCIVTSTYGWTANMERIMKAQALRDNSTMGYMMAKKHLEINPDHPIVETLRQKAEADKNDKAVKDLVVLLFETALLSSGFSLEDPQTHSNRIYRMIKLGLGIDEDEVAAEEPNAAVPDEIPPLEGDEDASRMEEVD

Row | Compound | IC50 [µM]
1 | CCNC(=O)c1cc2c(-c3cc(OCCCN(C)C)c(Cl)cc3Cl)nc(N)nc2s1 [Example 255] | < 10
2 | CCNC(=O)c1cc2c(-c3cc(OCCN(C)C)c(Cl)cc3Cl)nc(N)nc2s1 [Example 254] | < 10
3 | CCNC(=O)c1cc2c(-c3ccc(Cl)cc3Cl)nc(N)nc2s1 [Example 98] | < 10

Same assay, conditions: fluorescence polarization assay, activity range; read-out: Hsp90 FP IC50

Row | Compound | IC50 [µM]
4 | CCOC(=O)c1cc2c(C#N)nc(N)nc2s1 [Example 319, 2-Amino-4-cyano-thieno[2,3-d]pyrimidine-6-carboxylic acid ethyl ester] | < 10
5 | Nc1nc(-c2ccc(Cl)cc2Cl)c2cc(C(=O)NC3CCCC3)sc2n1 [Example 153] | < 10
6 | CCOC(=O)c1cc2c(-c3ccc(OC(C)C)cc3)nc(N)nc2s1 [Example 5] | > 10
7 | CCOC(=O)c1cc2c(C(=O)c3ccccc3C)nc(N)nc2s1 [Example 311] | < 10
8 | NC(=O)[C@H](CO)NC(=O)c1cc2c(-c3ccc(Cl)cc3Cl)nc(N)nc2s1 [Example 162] | < 10
9 | CCOC(=O)c1cc2c(-c3cccnc3)nc(N)nc2s1 [Example 94] | > 10
10 | C=C(c1ccc(Cl)cc1)c1nc(N)nc2sc(C(=O)OCC)cc12 [Example 280] | < 10
11 | CCOC(=O)c1cc2c(-c3cc(C(=O)OC)ccc3C)nc(N)nc2s1 [Example 179] | < 10
12 | CCNC(=O)c1cc2c(-c3cc(CNCC4CCCO4)ccc3C)nc(N)nc2s1 (stereo not shown) [Example 212] | < 10
13 | CCNC(=O)c1cc2c(-c3cc(CNCc4cccs4)ccc3C)nc(N)nc2s1 [Example 201] | < 10
14 | CCNC(=O)c1cc2c(-c3cc(CNC4CCCC4)ccc3C)nc(N)nc2s1 [Example 199] | < 10
15 | CCOC(=O)c1cc2c(C=Cc3ccccc3)nc(N)nc2s1 [275 Step 1] | < 10
16 | CCOC(=O)c1cc2c(-c3cccc(C#N)c3)nc(N)nc2s1 [Example 17] | > 10
17 | CCNC(=O)c1cc2c(-c3cc(OCC4CCCCN4C)c(Cl)cc3Cl)nc(N)nc2s1 (stereo not shown) [Example 273, 2-Amino-4-[2,4-dichloro-5-(1-methyl-piperidin-2-ylmethoxy)-phenyl]-thieno[2,3d]pyrimidine-6-carboxylic acid ethylamide] | < 10
18 | CCOC(=O)c1cc2c(-c3ccccc3)nc(N)nc2s1 [Example 1, 2-Amino-4-phenyl-thieno[2,3-d]pyrimidine-6-carboxylic acid ethyl ester] | < 10
19 | NC(=O)CCNC(=O)c1cc2c(-c3ccc(Cl)cc3Cl)nc(N)nc2s1 [Example 131] | < 10
20 | CCOC(=O)c1cc2c(C(C#N)c3ccccc3)nc(N)nc2s1 (stereo not shown) [Example 317] | < 10
21 | CN(c1ccccc1)c1nc(N)nc2sc(C(N)=O)cc12 [Example 63] | > 10
22 | CCOC(=O)c1cc2c(C(=O)c3cc(C)c(C)cc3C)nc(N)nc2s1 [Example 308] | < 10
23 | CCNC(=O)c1cc2c(-c3ccc(C)cc3Cl)nc(N)nc2s1 [Example 152] | < 10
24 | CCNC(=O)c1cc2c(-c3cc(CNCc4ccccc4)ccc3C)nc(N)nc2s1 [Example 200] | < 10
25 | Nc1nc(-c2ccc(Cl)cc2Cl)c2cc(C(=O)NCc3ccc(Cl)cc3)sc2n1 [Example 121] | < 10
26 | CCNC(=O)c1cc2c(OCc3ccccc3)nc(N)nc2s1 [Example 294] | > 10
27 | Nc1nc(-c2ccc(Cl)cc2Cl)c2cc(C(=O)NCCS(N)(=O)=O)sc2n1 [Example 130] | < 10

Row | Compound | IC50 [µM]
28 | CCOC(=O)c1cc2c(NC(C)(C)c3ccccc3)nc(N)nc2s1 [Example 29] | > 10
29 | C=Cc1ccc(-c2nc(N)nc3sc(C(=O)NCC)cc23)c(C)c1 [Example 171] | < 10
30 | CCOC(=O)c1cc2c(/C=C/c3ccccc3)nc(N)nc2s1 [Example 278] | < 10
31 | CCNC(=O)c1cc2c(-c3cc(CNCCc4cnc[nH]4)ccc3C)nc(N)nc2s1 [Example 204] | < 10
32 | CC(C)NC(=O)c1cc2c(-c3cc(OCCN4CCCC4)c(Cl)cc3Cl)nc(N)nc2s1 [Example 257] | < 10
33 | CCNC(=O)c1cc2c(-c3cc(OCCn4ccnc4)c(Cl)cc3Cl)nc(N)nc2s1 [Example 263] | < 10
34 | CCCOc1ccc(-c2nc(N)nc3sc(C(=O)OCC)cc23)c(C)c1 [Example 185, 2-Amino-4-(2-methyl-4-propoxy-phenyl)-thieno[2,3-d]pyrimidine-6-carboxylic acid ethyl ester] | < 10
35 | CCOC(=O)c1cc2c(C(=O)c3ccc(F)cc3)nc(N)nc2s1 [Example 305] | < 10
36 | CCCCOc1ccc(-c2nc(N)nc3sc(C(=O)OCC)cc23)c(C)c1 [Example 186] | > 10
37 | CCOC(=O)c1cc2c(-c3ccc(CN4CCCC4)cc3)nc(N)nc2s1 [Example 30] | > 10
38 | CCNC(=O)c1cc2c(-c3cc(OCc4ccccn4)c(Cl)cc3Cl)nc(N)nc2s1 [Example 261] | < 10
39 | Cc1ccc(-c2nc(N)nc3sc(C(=O)N4CCOCC4)cc23)c(C)c1 [Example 96] | > 10
40 | CCOC(=O)c1cc2c(-c3cccc(Cl)c3)nc(N)nc2s1 [Example 14] | > 10
41 | Nc1nc(-c2ccccc2)c2cc(C(=O)NCCCc3ccccc3)sc2n1 [Example 50] | > 10
42 | Nc1nc(-c2ccc(Cl)cc2Cl)c2cc(C(=O)Nc3cc[nH]n3)sc2n1 [Example 143] | < 10
43 | Cc1ccc(-c2nc(N)nc3sc(S(=O)(=O)NC4CC4)cc23)c(C)c1 [Example 274, 2-Amino-4-(2,4-dimethyl-phenyl)-thieno[2,3-d]pyrimidine-6-sulfonic acid cyclopropylamide] | < 10
44 | COC(=O)c1cc2c(NCc3ccccc3)nc(N)nc2s1 [Example 22, 2-Amino-4-benzylamino-thieno[2,3-d]pyrimidine-6-carboxylic acid methyl ester] | > 10
45 | CCOC(=O)c1cc2c(-c3cc(C=O)c(C)cc3C)nc(N)nc2s1 [Example 174] | < 10
46 | Nc1nc(-c2ccc(Cl)cc2Cl)c2cc(C(=O)NCc3ccncc3)sc2n1 [Example 141] | < 10
47 | CCOC(=O)c1cc2c(C(=O)c3ccc(C)c(C)c3)nc(N)nc2s1 [Example 306] | < 10
48 | Nc1nc(-c2ccc(Cl)cc2Cl)c2cc(C(=O)NCC3CCCO3)sc2n1 (stereo not shown) [Example 132] | < 10
49 | CCNC(=O)c1cc2c(-c3ccc(C#N)cc3Cl)nc(N)nc2s1 [Example 172] | < 10
50 | CCNC(=O)c1cc2c(-c3cc(CNCCc4cccs4)ccc3C)nc(N)nc2s1 [Example 214] | < 10
51 | CCOC(=O)c1cc2c(-c3cccc(C(N)=O)c3)nc(N)nc2s1 [Example 40] | > 10

Row | Compound | IC50 [µM]
52 | Nc1nc(-c2ccc(Cl)cc2Cl)c2cc(C(=O)NCc3ccc(F)cc3)sc2n1 [Example 120] | < 10
53 | CCOC(=O)c1cc2c(-c3ccc(C(F)(F)F)cc3C(F)(F)F)nc(N)nc2s1 [Example 4] | < 10
54 | CCOC(=O)c1cc2c(-c3ccc(Cl)cc3C)nc(N)nc2s1 [Example 3] | < 10
55 | CCNC(=O)c1cc2c(-c3cc(CNCc4ccco4)ccc3C)nc(N)nc2s1 [Example 210] | < 10
56 | Nc1nc(-c2ccc(Cl)cc2Cl)c2cc(C(=O)NCCCS(=O)(=O)O)sc2n1 [Example 144] | < 10
57 | C=C(c1ccccc1)c1nc(N)nc2sc(C(=O)NCC)cc12 [Example 283] | < 10
58 | CCN(CC)CCOc1cc(-c2nc(N)nc3sc(C(=O)NC(CO)CO)cc23)c(Cl)cc1Cl [Example 266] | < 10
59 | CCNC(=O)c1cc2c(-c3cc(CNCc4ccc(S(N)(=O)=O)cc4)ccc3C)nc(N)nc2s1 [Example 207] | < 10
60 | CCOC(=O)c1cc2c(-c3cc4ccccc4o3)nc(N)nc2s1 [Example 13] | > 10
61 | CCOC(=O)c1cc2c(NCCCc3c[nH]nc3C)nc(N)nc2s1 [Example 37] | > 10
62 | Cc1ccc(-c2nc(N)nc3sc(C(=O)NCc4ccccc4)cc23)c(C)c1 [Example 92] | < 10
63 | CN(C)CCNC(=O)c1cc2c(-c3ccccc3)nc(N)nc2s1 [Example 44] | < 10
64 | CCCNC(=O)c1ccc(C)c(-c2nc(N)nc3sc(C(=O)NCc4ccccc4)cc23)c1 [Example 182] | > 10
65 | Nc1nc(-c2ccccc2)c2cc(C(=O)NC3CCCC3)sc2n1 [Example 62] | < 10
66 | Nc1nc(-c2ccc(Cl)cc2Cl)c2cc(C(=O)NCC(F)(F)F)sc2n1 [Example 134] | < 10
67 | Nc1nc(-c2ccc(Cl)cc2Cl)c2cc(C(=O)NCc3ccco3)sc2n1 [Example 125] | < 10
68 | CCNC(=O)c1cc2c(-c3cc(CNCC4CCCO4)ccc3C)nc(N)nc2s1 (stereo not shown) [Example 223] | < 10
69 | Nc1nc(-c2ccc(Cl)cc2Cl)c2cc(C(=O)NCc3cccnc3)sc2n1 [Example 123] | < 10
70 | CCOC(=O)c1cc2c(-c3ccc(OCC)cc3Cl)nc(N)nc2s1 [Example 78] | < 10
71 | CCN(CC)CCOc1cc(-c2nc(N)nc3sc(C(=O)NCCO)cc23)c(Cl)cc1Cl [Example 258] | < 10
72 | CCOC(=O)c1cc2c(-c3ccc(OCC(=O)OC(C)(C)C)cc3C)nc(N)nc2s1 [Example 192] | > 10
73 | CCOC(=O)c1sc2nc(N)nc(-c3ccccc3)c2c1Br [Example 99] | > 10
